The values that follow come from US9340549B2, “Oxazolidinone compounds and derivatives thereof” (priority 2012, dated 2016).

Where two headings read alike, the source gives them in different places.

One experiment deals with Axin2 in SW480 cells. Put plainly: cells. It counts as cell-based. To be noted: Homo sapiens, read-out: Axin2 384 IF EC50 IP. The procedure: Using a VPrep, 10 μL of compound/controls was transferred from the compound plate to 60 μL in the cell plate (final 0.5% DMSO, 70 μL). The mixture was incubated for 24 hours at 37° C. at 5% CO2.
The extra media was tapped out. 50 μL of 4% paraformaldehyde (Fisher, AA433689M), 0.1% Triton (Sigma, X100-100 ML) in PBS were added, and the mixture was incubated for 15 minutes at room temperature. […] The extra media was tapped out and to this was added 50 μL of buffer containing Axin2 Antibody (Sigma, SAB1100677-200 µL) at 1:10000 in PBS, 0.1% Tween-20, 1% Normal Goat Serum. The mixture was incubated for 2 hours at room temperature or overnight at 4° C. The cells were then washed twice with PBS, 0.1% Tween-20, and 1% Normal Goat Serum. […] The mixture was then incubated for 30 minutes at room temperature. The cells were then washed twice with PBS, 0.1% Tween-20, and 1% Normal Goat Serum. 50-100 μL PBS was added, and the mixture was covered with a plate seal (Fisher, NC9425162). An ArrayScan (a variation of the compartmental analysis protocol was optimized) was used to scan the plates, and data was analyzed using MEAN_RingSpotAvgIntenCh2). The Axin2 accumulation POC was calculated, and the EC50 was determined using Genedata Screener software to report Axin2 activity.

Experiment [1] deals with 6×HIS-tankyrase 1 (1091-1325) (Homo sapiens (Human), UniProt O95271). Put plainly: biochemical. Format: biochemical.
Chain of 6×HIS-tankyrase 1 (1091-1325) (O95271 1091-1325): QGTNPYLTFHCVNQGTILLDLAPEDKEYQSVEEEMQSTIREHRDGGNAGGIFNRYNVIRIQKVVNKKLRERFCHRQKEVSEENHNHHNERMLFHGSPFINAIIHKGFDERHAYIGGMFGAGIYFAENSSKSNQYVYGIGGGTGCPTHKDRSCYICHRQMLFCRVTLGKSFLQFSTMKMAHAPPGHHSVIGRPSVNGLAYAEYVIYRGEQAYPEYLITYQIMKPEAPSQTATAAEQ
In experiment [2] the test system is total β-catenin in SW480 colorectal cells. The experiment in a line: cells. To be noted: Homo sapiens. Format: cell-based. Put shortly: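 SW480 cells in growth medium (MEM alpha, 10% heat-inactivated FBS, 10 mM HEPES) treated with a 10-point, 3-fold dilution series of TNKS inhibitor for 40–48 h at 37 °C. Lysates run on an MSD sandwich immunoassay for total β-catenin, read by electrochemiluminescence.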

The mark [3] stands for this setting: SW480, 24 h, SW480 cells, 24 hours.
The mark [4] stands for this setting: […] enzyme, 400 nM NAD, 60 minutes at room temperature, read-out: TNKS1 IP IC50.
[5] abbreviates: SW480 cells, 40 to 48 hours, top concentration 10 μM, read-out: SW480-Total β-Catenin IC50 IP.
[6] abbreviates: SW480, read-out: SW480-Total β-Catenin IC50 IP.

One may read the EC50 as the midpoint of the concentration-response curve. Usually IC50 stands for the concentration needed to halve the response being measured. `CC1(C)OC(=O)N(c2ccc(C(=O)Nc3cccc4cccnc34)cc2)[C@H]1c1ccc(F)cc1` [Example 2, (S)-4-(4-(4-fluorophenyl)-5,5-dimethyl-2-oxooxazolidin-3-yl)-N-(quinolin-8-yl)benzamide]: the EC50 in the experiment on Axin2 in SW480 cells (setting [3]) amounted to 5.48 µM. Also, the values for the IC50 in experiment [1] (setting [4]) and in experiment [2] (setting [5]) were 307 nM and 1960 nM, respectively.

Consider `CC1(C)OC(=O)N(c2ccc(-c3cc(-c4ncccn4)cnc3F)cc2)[C@H]1c1ccccc1` [Example 3, (S)-3-(4-(2-Fluoro-5-(pyrimidin-2-yl)pyridin-3-yl)phenyl)-5,5-dimethyl-4-phenyloxazolidin-2-one], for which the EC50 with Axin2 in SW480 cells (setting [3]) was over 25 µM. Also, the IC50 was determined as 378 nM in experiment [1] (setting [4]) and 1750 nM in experiment [2] (setting [5]).

`CC1(C)OC(=O)N(c2ccc(C(=O)Nc3cccc4cccnc34)cc2)[C@H]1c1cccnc1` [Example 11, (S)-4-(5,5-dimethyl-2-oxo-4-(pyridin-3-yl)oxazolidin-3-yl)-N-(quinolin-8-yl)benzamide]: the EC50 with Axin2 in SW480 cells (setting [3]) was found to be 7.06 µM. The IC50 in experiment [1] (setting [4]) was 392 nM; in experiment [2] (setting [5]), 1520 nM.

As to `CC1(C)OC(=O)N([C@H]2CC[C@H](c3cnc(N)c(Nc4ncccn4)c3)CC2)[C@@H]1c1ccccc1` [Example 13, (S)-3-((1r,4S)-4-(6-Amino-5-(pyrimidin-2-ylamino)pyridin-3-yl)cyclohexyl)-5,5-dimethyl-4-phenyloxazolidin-2-one], in the experiment on Axin2 in SW480 cells (setting [3]), the EC50 was over 25 µM. In addition, the IC50 in experiment [1] (setting [4]) was 2060 nM; in experiment [2] (setting [5]) it was over 10000 nM.

As to `CC1(C)OC(=O)N(c2ccc(-n3c(=O)[nH]c4cnccc43)cc2)[C@H]1c1ccccc1` [Example 16, (S)-5,5-dimethyl-3-(4-(2-oxo-2,3-dihydro-1H-imidazo[4,5-c]pyridin-1-yl)phenyl)-4-phenyloxazolidin-2-one], the EC50 in the experiment with Axin2 in SW480 cells (setting [3]) is 8.19 µM. Also, the half-maximal inhibitory concentration (IC50) in experiment [1] (setting [4]) is 114 nM; in experiment [2] (setting [5]), 2540 nM.

`CC1(C)OC(=O)N(c2ccc(-n3c(=O)oc4ccccc43)cc2)[C@H]1c1ccccc1` [Example 17, (S)-3-(4-(5,5-dimethyl-2-oxo-4-phenyloxazolidin-3-yl)phenyl)benzo[d]oxazol-2(3H)-one]: the EC50 in the experiment with Axin2 in SW480 cells (setting [3]) is over 25 µM. The IC50 is 2820 nM in experiment [1] (setting [4]) and over 10000 nM in experiment [2] (setting [5]).

For the molecule `CC1(C)OC(=O)N(c2ccc(N3C(=O)Cc4ccccc43)cc2)[C@H]1c1ccccc1` [Example 18, (S)-5,5-dimethyl-3-(4-(2-oxoindolin-1-yl)phenyl)-4-phenyloxazolidin-2-one], in the experiment with Axin2 in SW480 cells (setting [3]), the EC50 is over 25 µM. Besides, the figures for the IC50 in experiment [1] (setting [4]) and in experiment [2] (setting [5]) were 973 nM and over 10000 nM, respectively.

Consider `CC1(C)OC(=O)N(c2ccc(-n3c(=O)[nH]c4ccccc43)nc2)[C@H]1c1ccccc1` [Example 22, (S)-5,5-dimethyl-3-(6-(2-oxo-2,3-dihydro-1H-benzo[d]imidazol-1-yl)pyridin-3-yl)-4-phenyloxazolidin-2-one], for which the EC50 in the experiment on Axin2 in SW480 cells (setting [3]) is over 25 µM. In addition, the IC50 in experiment [1] (setting [4]) was 1430 nM; in experiment [2] (setting [5]), over 10000 nM.

As to `CC1(c2ccccc2)CN([C@H]2CC[C@H](n3c(=O)[nH]c4ccccc43)CC2)C(=O)O1` (stereo partly drawn) [Example 34, (R+S) 5-methyl-3-((1r,4r)-4-(2-oxo-2,3-dihydro-1H-benzo[d]imidazol-1-yl)cyclohexyl)-5-phenyloxazolidin-2-one], the EC50 with Axin2 in SW480 cells (SW480 cells, 24 hours) was found to be 2.72 µM. Further, the IC50 came out at 42.8 nM in experiment [1] (setting [4]) and 829 nM in experiment [2] (setting [5]).

Regarding `CC1(C)OC(=O)N(c2ccc(-c3cc(-c4ccccn4)cnn3)cc2)[C@H]1c1ccccc1` [Example 40, (S)-5,5-dimethyl-4-phenyl-3-(4-(5-(pyridin-2-yl)pyridazin-3-yl)phenyl)oxazolidin-2-one], the EC50 in the experiment on Axin2 in SW480 cells (SW480, 24 h) is over 25 µM. Moreover, the IC50 came out at 621 nM in experiment [1] (setting [4]) and 9470 nM in experiment [2] (setting [6]).

On to `Cc1ccccc1[C@@H]1N(c2ccc(C(=O)Nc3cccc4cccnc34)cc2)C(=O)OC1(C)C` [Example 41, (S)-4-(5,5-dimethyl-2-oxo-4-(o-tolyl)oxazolidin-3-yl)-N-(quinolin-8-yl)benzamide], for which the EC50 in the experiment on Axin2 in SW480 cells (setting [3]) is 4.37 µM. Besides, the IC50 in experiment [1] (setting [4]) amounted to 116 nM; in experiment [2] (setting [5]) it was 1980 nM.

Turning to `CC1(C)OC(=O)N(c2ccc(C(=O)Nc3cccc4cccnc34)cc2)C1c1ccccc1F` (stereo not drawn) [Example 42, (R+S) 4-(4-(2-fluorophenyl)-5,5-dimethyl-2-oxooxazolidin-3-yl)-N-(quinolin-8-yl)benzamide], in the experiment on Axin2 in SW480 cells (setting [3]), the EC50 came to 9.4 µM. For the same molecule, the IC50 amounted to 263 nM in experiment [1] (setting [4]) and 4870 nM in experiment [2] (setting [5]).

Consider `CCC1(CC)OC(=O)N(c2ccc(C(=O)Nc3cccc4cccnc34)cc2)[C@H]1c1ccccc1` [Example 43, (S)-4-(5,5-diethyl-2-oxo-4-phenyloxazolidin-3-yl)-N-(quinolin-8-yl)benzamide], for which the EC50 with Axin2 in SW480 cells (SW480 cells, 24 hours) is over 25 µM. Besides, the IC50 in experiment [1] (setting [4]) is 786 nM; in experiment [2] (setting [5]) it was over 10000 nM.

For `O=C(Nc1cccc2cccnc12)c1ccc(N2C(=O)OC3(CCC3)C2c2ccccc2)cc1` (stereo not drawn) [Example 44, (R+S) 4-(6-oxo-8-phenyl-5-oxa-7-azaspiro[3.4]octan-7-yl)-N-(quinolin-8-yl)benzamide], the EC50 in the experiment with Axin2 in SW480 cells (SW480 cells, 24 hours) is over 25 µM. Further, the IC50 was found to be 822 nM in experiment [1] (setting [4]) and 8800 nM in experiment [2] (setting [5]).

On to `O=C(Nc1cccc2cccnc12)c1ccc(N2C(=O)OC3(CCCC3)C2c2ccccc2)cc1` (stereo not drawn) [Example 45, (R+S) 4-(2-oxo-4-phenyl-1-oxa-3-azaspiro[4.4]nonan-3-yl)-N-(quinolin-8-yl)benzamide], for which the EC50 with Axin2 in SW480 cells (SW480, 24 h) was over 25 µM. Moreover, the figures for the IC50 in experiment [1] (setting [4]) and in experiment [2] (setting [6]) were 1250 nM and over 10000 nM, respectively.

With `CC1(C)OC(=O)N([C@H]2CC[C@H](N3C(=O)C(F)(F)c4ccccc43)CC2)[C@H]1c1ccccc1` [Example 48, (S)-3-((1s,4R)-4-(3,3-difluoro-2-oxoindolin-1-yl)cyclohexyl)-5,5-dimethyl-4-phenyloxazolidin-2-one], in the experiment with Axin2 in SW480 cells (setting [3]), the EC50 is over 25 µM. Moreover, the IC50 in experiment [1] (setting [4]) was 617 nM; in experiment [2] (setting [5]), over 10000 nM.

For `CC1(C)OC(=O)N([C@H]2CC[C@H](n3c(=O)oc4cccnc43)CC2)[C@H]1c1ccccc1` [Example 49, 3-(trans-4-((4S)-5,5-dimethyl-2-oxo-4-phenyl-1,3-oxazolidin-3-yl)cyclohexyl)[1,3]oxazolo[4,5-b]pyridin-2(3H)-one], the EC50 in the experiment with Axin2 in SW480 cells (setting [3]) is over 25 µM. The IC50 in experiment [1] came out at 3460 nM; in experiment [2] (setting [5]) it was 949 nM.

In the case of `CC1(C)OC(=O)N([C@H]2CC[C@H](n3c(=O)[nH]c4cnc(C(F)(F)F)cc43)CC2)[C@H]1c1ccccc1` [Example 52, (S)-5,5-dimethyl-3-((1r,4S)-4-(2-oxo-6-(trifluoromethyl)-2,3-dihydro-1H-imidazo[4,5-c]pyridin-1-yl)cyclohexyl)-4-phenyloxazolidin-2-one], the EC50 in the experiment on Axin2 in SW480 cells (setting [3]) was determined as 1.03 µM. Also, the IC50 is 25.8 nM in experiment [1] (setting [4]) and 693 nM in experiment [2] (setting [5]).

As to `CC1(C)OC(=O)N([C@H]2CC[C@H](n3c(=O)[nH]c4cnc(Cl)cc43)CC2)[C@H]1c1ccccc1` [Example 53, (S)-3-((1r,4S)-4-(6-chloro-2-oxo-2,3-dihydro-1H-imidazo[4,5-c]pyridin-1-yl)cyclohexyl)-5,5-dimethyl-4-phenyloxazolidin-2-one], in the experiment with Axin2 in SW480 cells (setting [3]), the EC50 was determined as 0.291 µM. In addition, the IC50 amounted to 6.52 nM in experiment [1] (setting [4]) and 284 nM in experiment [2] (setting [5]).
